Results on 17 compounds are retold here after US10781206B2, “Tetrahydropyrazolopyridine compounds for the treatment of infectious diseases” (Hoffmann-La Roche Inc., priority 2017, dated 2020).

As a reminder, the EC50 is the concentration needed to bring the measured effect to its halfway point. Higher therefore signals a need for much substance.

This test deals with HBV. The test can be described thus: HBV inhibition assay in HepG2.2.15 cells (extracellular HBV DNA by qPCR). Format: cell-based. Conditions: Hepatitis B virus, 120 h, extracellular HBV DNA in culture supernatant by qPCR, five days after compound treatment. From the text:
Example 19: HBV Inhibition Assays
Cell Line and Culture Conditions:
HepG2.2.15 is a stably-transfected cell line containing the HBV genome. It is derived from the hepatoblastoma cell line Hep G2 (American Type Culture Collection, ATCC® HB-8065™) by the published procedures described in reference: MA Selles et al. Proc. Natl. Acad. Sci. USA 1987, 84, 1005-1009. The cell line was maintained in Dulbecco's modified Eagle's medium and nutrient mixture F-12 (DMEM/F-12, Gibco, Cat. #: 11320-033) supplemented with 10% fetal bovine serum (Gibco, Cat. #: 10099-141), 100 U/mL penicillin, 100 μg/mL streptomycin (Gibco, Cat. #: 15140-122), and 0.3 mg/mL of G418 Sulfate (Gibco, Cat. #: 10131-027).
Anti-HBV Activity In Vitro:
HepG2.2.15 cells were seeded into 96-well plates at a density of 3×10^4 cells per well in culture media of 100 μL DMEM/F-12 supplemented with 2.5% fetal bovine serum, 100 U/mL penicillin, 100 μg/mL streptomycin and cultured overnight at 37° C. The test compounds were serially half-log diluted in DMSO, then diluted 100 times in culture media. 100 μL culture media containing diluted compounds were added into the plates to reach 0.5% final concentration of DMSO in every well. Five days after compound treatment, culture supernatant was collected for further analysis.
For quantitative PCR detection of extracellular HBV DNA, culture supernatant was processed by 500 μg/mL Proteinase K (Sigma, Cat. #: P2308) digestion at 50° C. for 1 hour. After heat inactivation of the enzyme at 95° C. for 15 minutes, the samples were subjected to HBV DNA quantification by qPCR. The effective compound concentration at which HBV replication was inhibited by 50% (EC50) was determined.

`O=C(Nc1cc(F)c(F)c(F)c1)C1CCn2ncc(N3CCCC3=O)c2C1` (centres unmarked) [Example 1, 3-(2-oxopyrrolidin-1-yl)-N-(3,4,5-trifluorophenyl)-4,5,6,7-tetrahydropyrazolo[1,5-a]pyridine-5-carboxamide] yielded an EC50 of 0.37 µM.

For `CC1(C)CN(c2cnn3c2CC(C(=O)Nc2cc(F)c(F)c(F)c2)CC3)C(=O)O1` (centres unmarked) [Example 2, 3-(5,5-dimethyl-2-oxo-oxazolidin-3-yl)-N-(3,4,5-trifluorophenyl)-4,5,6,7-tetrahydropyrazolo[1,5-a]pyridine-5-carboxamide], the EC50 came to 0.3 µM.

Compound `O=C(Nc1cc(F)c(F)c(F)c1)C1CCn2ncc(-c3ccc(F)cc3F)c2C1` (centres unmarked) [Example 3, 3-(2,4-difluorophenyl)-N-(3,4,5-trifluorophenyl)-4,5,6,7-tetrahydropyrazolo[1,5-a]pyridine-5-carboxamide] had an EC50 of 0.16 µM.

`O=C(Nc1cc(F)c(F)c(F)c1)C1CCn2ncc(C3CCCC3)c2C1` (centres unmarked) [Example 4, 3-cyclopentyl-N-(3,4,5-trifluorophenyl)-4,5,6,7-tetrahydropyrazolo[1,5-a]pyridine-5-carboxamide] gave a half-maximal effective concentration (EC50) of 0.15 µM.

In turn, `O=C(Nc1cc(F)c(F)c(F)c1)C1CCn2ncc(N3CCCS3(=O)=O)c2C1` (centres unmarked) [Example 5, 3-(1,1-dioxo-1,2-thiazolidin-2-yl)-N-(3,4,5-trifluorophenyl)-4,5,6,7-tetrahydropyrazolo[1,5-a]pyridine-5-carboxamide] yielded a 50% effective concentration (EC50) of 0.039 µM.

As for `O=C(Nc1cc(F)c(F)c(F)c1)C1CCn2ncc(N3CCN(Cc4ccccc4)S3(=O)=O)c2C1` (centres unmarked) [Example 6, 3-(5-benzyl-1,1-dioxo-1,2,5-thiadiazolidin-2-yl)-N-(3,4,5-trifluorophenyl)-4,5,6,7-tetrahydropyrazolo[1,5-a]pyridine-5-carboxamide], the concentration for a half-maximal effect (EC50) worked out at 0.24 µM.

`O=C(Nc1cc(F)c(F)c(F)c1)C1CCn2ncc(N3CCNS3(=O)=O)c2C1` (centres unmarked) [Example 7, 3-(1,1-dioxo-1,2,5-thiadiazolidin-2-yl)-N-(3,4,5-trifluorophenyl)-4,5,6,7-tetrahydropyrazolo[1,5-a]pyridine-5-carboxamide]: the EC50 was 0.11 µM.

Turning to `N#CC1CC(=O)N(c2cnn3c2CC(C(=O)Nc2cc(F)c(F)c(F)c2)CC3)C1` (centres unmarked) [Example 8, 3-(4-cyano-2-oxo-pyrrolidin-1-yl)-N-(3,4,5-trifluorophenyl)-4,5,6,7-tetrahydropyrazolo[1,5-a]pyridine-5-carboxamide], the EC50 amounted to 0.19 µM.

`O=C(Nc1cc(F)c(F)c(F)c1)C1CCn2ncc(N3CCOCC3=O)c2C1` (centres unmarked) [Example 9, 3-(3-oxomorpholin-4-yl)-N-(3,4,5-trifluorophenyl)-4,5,6,7-tetrahydropyrazolo[1,5-a]pyridine-5-carboxamide] returned a concentration for a half-maximal effect (EC50) of 0.84 µM.

Consider `Cc1noc(C2CC(=O)N(c3cnn4c3CC(C(=O)Nc3cc(F)c(F)c(F)c3)CC4)C2)n1` (centres unmarked) [Example 10, 3-[4-(3-methyl-1,2,4-oxadiazol-5-yl)-2-oxo-pyrrolidin-1-yl]-N-(3,4,5-trifluorophenyl)-4,5,6,7-tetrahydropyrazolo[1,5-a]pyridine-5-carboxamide], for which a half-maximal effect (EC50) was put at 0.33 µM.

For the compound `O=C(Nc1ccsc1)C1CCn2ncc(-c3ccc(F)cc3F)c2C1` (centres unmarked) [Example 11, 3-(2,4-difluorophenyl)-N-(3-thienyl)-4,5,6,7-tetrahydropyrazolo[1,5-a]pyridine-5-carboxamide], a half-maximal response (EC50) required 0.59 µM.

Take `O=C(Nc1ccc(F)c(C(F)(F)F)c1)C1CCn2ncc(-c3ccc(F)cc3F)c2C1` (centres unmarked) [Example 12, 3-(2,4-difluorophenyl)-N-[4-fluoro-3-(trifluoromethyl)phenyl]-4,5,6,7-tetrahydropyrazolo[1,5-a]pyridine-5-carboxamide]: the EC50 is 0.87 µM.

For `N#Cc1cc(NC(=O)C2CCn3ncc(-c4ccc(F)cc4F)c3C2)ccc1F` (centres unmarked) [Example 13, N-(3-cyano-4-fluoro-phenyl)-3-(2,4-difluorophenyl)-4,5,6,7-tetrahydropyrazolo[1,5-a]pyridine-5-carboxamide], the EC50 was 0.21 µM.

`Cc1cc(NC(=O)C2CCn3ncc(-c4ccc(F)cc4F)c3C2)ccc1F` (centres unmarked) [Example 14, 3-(2,4-difluorophenyl)-N-(4-fluoro-3-methyl-phenyl)-4,5,7-tetrahydropyrazolo[1,5-a]pyridine-5-carboxamide] returned a half-maximal effective concentration (EC50) of 0.089 µM.

Turning to `O=C(Nc1cc(F)nc(F)c1)C1CCn2ncc(-c3ccc(F)cc3F)c2C1` (centres unmarked) [Example 15, 3-(2,4-difluorophenyl)-N-(2,6-difluoro-4-pyridyl)-4,5,6,7-tetrahydropyrazolo[1,5-a]pyridine-5-carboxamide], the concentration for a half-maximal effect (EC50) was determined as 0.45 µM.

For the compound `O=C(Nc1ccnc(F)c1)C1CCn2ncc(-c3ccc(F)cc3F)c2C1` (centres unmarked) [Example 16, 3-(2,4-difluorophenyl)-N-(2-fluoro-4-pyridyl)-4,5,6,7-tetrahydropyrazolo[1,5-a]pyridine-5-carboxamide], it took 0.35 µM to reach a half-maximal effect (EC50).

`Cc1nc(C2CC(=O)N(c3cnn4c3CC(C(=O)Nc3cc(F)c(F)c(F)c3)CC4)C2)no1` (centres unmarked) [Example 18, 3-[4-(5-methyl-1,2,4-oxadiazol-3-yl)-2-oxo-pyrrolidin-1-yl]-N-(3,4,5-trifluorophenyl)-4,5,6,7-tetrahydropyrazolo[1,5-a]pyridine-5-carboxamide] returned a half-maximal effective concentration (EC50) of 0.39 µM.
